Assays:
[1] = compound: C1CCC(CC1)N(CCNCCC2=C3C(=C(C=C2)O)NC(=O)CO3)C(=O)CCNCCC4=CC(=C(C=C4)Cl)Cl [AZ505]; test: relative viability (nuclei count vs DMSO), 5 days (fraction); higher = more cells survive
How it was run: (§1)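 Following overnight incubation at 37 °C, lung cancer cell lines in 1536-well plates were pinned with five library-drug doses (not always all listed) in √10 steps on vehicle-anchored plates. The cells then spent 5 days without medium change before a combined fix, permeabilisation and Hoechst stain, 4× imaging and MetaXpress nuclear counts. Viability is the treated-to-vehicle ratio of nuclei, taken as the median across plates. Only plates with control CV below 25% and at least one doubling passed.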

[2] = compound: Cn1c(=O)n(-c2ccc(C(C)(C)C#N)cc2)c2c3cc(-c4cnc5ccccc5c4)ccc3ncc21 [Dactolisib]; test: as above
How it was run: as §1

| Cell Line | relative viability ([1]; 0.08 µM) | relative viability ([1]; 0.253 µM) | relative viability ([1]; 0.8 µM) | relative viability ([1]; 2.53 µM) | relative viability ([1]; 8 µM) | relative viability ([2]; 0.002 µM) | relative viability ([2]; 0.006325 µM) | relative viability ([2]; 0.02 µM) | relative viability ([2]; 0.06325 µM) | relative viability ([2]; 0.2 µM) |
| --- | --- | --- | --- | --- | --- | --- | --- | --- | --- | --- |
| NCI-H838 | 0.915 | 0.976 | 0.948 | 0.942 | 0.998 | 0.978 | 0.775 | 0.659 | 0.347 | 0.296 |
| NCI-H1299 | 0.981 | 0.968 | 0.969 | 0.948 | 1 | 1 | 1.05 | 1.02 | 0.769 | 0.885 |
| NCI-H1355 | 0.928 | 0.854 | 0.97 | 0.936 | 1.03 | 1.05 | 0.925 | 0.915 | 0.479 | 0.369 |
| NCI-H1395 | 0.901 | 0.815 | 0.879 | 0.903 | 1.03 | 0.781 | 0.852 | 0.807 | 0.67 | 0.577 |
| NCI-H1437 | 0.977 | 1 | 0.983 | 1.01 | 0.991 | 1.01 | 0.991 | 1.03 | 0.914 | 0.741 |
| NCI-H1563 | 0.998 | 1.04 | 0.968 | 0.93 | 0.939 | 1 | 0.928 | 0.885 | 0.605 | 0.562 |
| NCI-H1623 | 0.894 | 1.03 | 0.984 | 0.937 | 1.04 | 1.14 | 0.968 | 0.918 | 0.531 | 0.402 |
| NCI-H1648 | 0.734 | 1.01 | 0.883 | 1.01 | 1.15 | 0.842 | 0.869 | 1.01 | 0.451 | 0.319 |
| NCI-H1650 | 0.828 | 0.973 | 0.882 | 0.926 | 1.04 | 0.943 | 0.92 | 0.867 | 0.468 | 0.41 |
| NCI-H1651 | 0.927 | 0.984 | 0.977 | 0.938 | 1.04 | 1.01 | 1 | 0.872 | 0.555 | 0.434 |
| NCI-H1666 | 0.899 | 0.978 | 0.974 | 0.973 | 0.961 | 1.09 | 0.926 | 0.957 | 0.746 | 0.639 |
| NCI-H1703 | 0.733 | 0.853 | 1.04 | 1.11 | 1.03 | – | 0.768 | 0.784 | 0.479 | 0.405 |
| NCI-H1734 | 0.905 | 0.914 | 0.952 | 0.971 | 0.958 | 1.04 | 0.887 | 0.864 | 0.384 | 0.313 |

Reference: the supplement of paper PMC10307832
